This is an account of results in patent publication US9206177B2, “Substituted dimeric quinazoline-2,4-diones as FGF receptor agonists” (Sanofi, priority 2011, dated 2015).

In one assay the test system is mice. Kind of assay: Sponge angiogenesis model (haemoglobin content of implanted cellulose sponge). The settings on record: at a concentration of 300 μM. Type of assay: in vivo. The source says: Sponge Angiogenesis Model
The sponge angiogenesis model is an adaptation of the technique of Andrade et al. [Andrade S P, Machado R., Teixeiras, Belo A V, Tarso A M, Beraldo W T—Sponge-induced angiogenesis in mice and the pharmacological reactivity of the neovasculature quantitated by fluorimetric method, Microvascular Research, 1997, 54: 253-61.]
The mice used are BalbC females from Charles River Laboratory, 7 to 10 weeks old. The animals are anaesthetized by intraperitoneal injection of a xylazine/ketamine mixture (1 mg/kg each in 0.9% NaCl). The animal's back is shaved and disinfected with hexomedine. A subcutaneous 5 ml pocket of air is made on the animal's back with sterile air. An incision is then made (approximately 1 cm) on the top of the animal's back in order to implant the sponge in the pocket. The biocompatible cellulose sponge (Cellspon, Interchim, 10 mm in diameter) was sterilized beforehand (autoclave 20 min at 120° C.) and is impregnated with 50 μl of sterile solution containing the test product. Suturing is performed by inserting two 9-mm stainless steel autoclip staples (Subra). The wound is again disinfected with hexomedine. […]
To assay the haemoglobin, 50 μl of each sample are deposited in a 96-well plate, in duplicate. […] The OD values are read on a spectrophotometer at 405 nm, using the Biolise software (Tecan, France). […]

Assay [1] relates to human venous endothelial cells (HUVECs). Kind of assay: In vitro angiogenesis model (pseudotubule length of HUVECs on matrigel/collagen). The arrangement: % activation with respect to FGF2 (in vitro): concentration or dose not given beside the values. Type of assay: cell-based. The following applies: for EC50 / % activation with respect to FGF2 (in vitro): in vitro; for % activation with respect to FGF2 (in vitro): relative to FGF2. On the procedure: In Vitro Angiogenesis Model
The products are tested for their ability to cause rearrangement of human venous endothelial cells (HUVECs) on matrigel (Becton dickinson 356230) diluted in collagen (rat tail collagen, type I: Becton dickinson 354236). After 24 hours, the cells are observed under a microscope with a ×4 objective and the length of the pseudotubules is measured by means of an image analyser (BIOCOM-logiciel Visiolab 2000).

Some results are limits rather than exact numbers.

With `Cc1c(-c2ccc(OCC(=O)NCCCCCCNC(=O)COc3ccc(-c4c(C)c(C(=O)c5ccc6[nH]c(=O)n(CC(=O)O)c(=O)c6c5)n5ccccc45)cc3)cc2)c2ccccn2c1C(=O)c1ccc2[nH]c(=O)n(CC(=O)O)c(=O)c2c1` [Compound 4], the “active on the in vitro angiogenesis model (sentence stands under the sponge angiogenesis model)” value in the assay on mice is reported as “active”. In assay [1], the EC50 (as a rule, the midpoint of the concentration-response curve) was less than 1 nM and the “% activation with respect to FGF2 (in vitro)” value came to 57%.
`Cc1c(-c2ccc(C(=O)NCCOP(=O)(O)OCCNC(=O)c3ccc(-c4c(C)c(C(=O)c5ccc6c(=O)n(CC(=O)O)c(=O)[nH]c6c5)n5ccccc45)cc3)cc2)c2ccccn2c1C(=O)c1ccc2c(=O)n(CC(=O)O)c(=O)[nH]c2c1` [Compound 16, [7-({1-[4-({9-[4-(3-{[3-(carboxymethyl)-2,4-dioxo-1,4-dihydroquinazolin-7(2H)-yl]carbonyl}-2-methylindolizin-1-yl)phenyl]-4-hydroxy-4-oxido-9-oxo-3,5-dioxa-8-aza-4λ^5-phosphanon-1-yl}carbamoyl)phenyl]-2-methylindolizin-3-yl}carbonyl)-2,4-dioxo-1,4-dihydroquinazolin-3(2H)-yl]acetic acid] registered an EC50 in assay [1] (Homo sapiens, HUVEC) of less than 1 nM. For the same compound, the “active on the in vitro angiogenesis model” value in assay [1] (at a concentration of 10 nM) is on record as “active”. For the same compound, the “% activation with respect to FGF2 (in vitro)” value in assay [1] was determined as 82%.
